Results: patent US20260078335A1, “MICROBIAL ENHANCED COMPOSITIONS COMPRISING SURFACTANT BLENDS WHICH OVERCOME ANTAGONISTIC SURFACTANT INCOMPATIBILITY” (Stepan Company, priority 2023, published 2026)
Read-outs that look alike come from different tables or passages of the source.

How the values were obtained:
Type in all cases: cell-based
[1] = tested on: pathogenic bacteria and fungi; experiment: preservative screening test, overall result
Protocol: (§1) A preservative screening study was performed to determine a sufficient amount of preservative to include in selected MEC formulations to provide efficacy against pathogenic bacteria and fungi. The base formulations used in the study were a formulation similar to Composition A from Example 5, but without the spores, and a formulation similar to the Example 14 formulation, but without the spores and 2-phenoxyethanol. Test formulations were prepared by adding different preservatives in different amounts to the base formulations. Each test formulation was tested for efficacy against pathogenic organisms using a preservative screening test. For the screening test, microorganisms are grown separately according to industry standards described in PCPC Test Method M-7 “A Rapid Method for Preservation Testing of Water-Miscible Personal Care Products”, and combined as an inoculum challenge prior to introduction to the formulation test sample. The inoculum is added to each test formulation for predetermined time points, and after appropriate nutrition, the test formulations are evaluated for remaining live count. Reduction of live count is calculated against a control, and a sample showing sufficient percent reduction is accepted as an effectively preserved formulation. Table 4 provides the details of the preservative and amount used in each test formulation and the results of the screen testing.

[2] = tested on: fungi; experiment: preservative screening test, fungal; conditions: reduction of live count
Protocol: A preservative screening study was performed to determine a sufficient amount of preservative to include in selected MEC formulations to provide efficacy against pathogenic bacteria and fungi. […] Test formulations were prepared by adding different preservatives in different amounts to the base formulations. Each test formulation was tested for efficacy against pathogenic organisms using a preservative screening test. For the screening test, microorganisms are grown separately according to industry standards described in PCPC Test Method M-7 “A Rapid Method for Preservation Testing of Water-Miscible Personal Care Products”, and combined as an inoculum challenge prior to introduction to the formulation test sample. The inoculum is added to each test formulation for predetermined time points, and after appropriate nutrition, the test formulations are evaluated for remaining live count. Reduction of live count is calculated against a control, and a sample showing sufficient percent reduction is accepted as an effectively preserved formulation.

[3] = tested on: pathogenic bacteria; experiment: preservative screening test, bacterial; conditions: reduction of live count
Protocol: as §1

[4] = tested on: beneficial microorganisms; experiment: compatibility with beneficial microorganisms (description, test not specified); conditions: stated in the description, no test details
Protocol: Incompatibility between a surfactant and a beneficial microorganism has been investigated in various ways, such as a standard Zone of Inhibition test, a standard agar plating test, or a standard resazurin (7-hydroxy-10-oxidophenoxazin-10-ium-3-one, sodium) (a blue fluorogenic dye) compatibility assay. In a Zone of Inhibition test, microorganisms are grown, cultured, diluted down to target levels, and then applied to a Petri dish containing agar nutrients. Test samples containing the surfactant of interest are diluted and loaded into an agar well created within the agar nutrient. The plates are incubated and microorganism growth is allowed to develop. The test sample diffuses through the agar and, if the surfactant in the test sample has an inhibitory effect on the microorganism, a lack of growth halo will be observed around the sample loaded well. This halo is referred to as the zone of inhibition. The larger the zone, the bigger the effect of inhibition. Major suitability limitations for non-antibiotics test samples for this test method are inherent large dilution of active, agar diffusion challenges, and nutrient media incompatibilities (neutralization, precipitation, etc). Although this method has been used in the medical field for antibiotics very successfully for decades, it has low suitability when testing non-antibiotic samples. In a standard agar plating test, test samples containing the surfactant of interest and microorganisms are exposed, diluted several orders of magnitude, and plated onto a nutritive agar that is incubated. After an incubation period appropriate for the species, the microorganism growth pattern is evaluated against appropriate controls. […] The test samples are incubated and then inspected for colorometric and fluorescence change. Test samples that are blue and have low fluorescence indicate no biological activity and incompatibility between the surfactant and the microorganism. Test samples that are pink and have high fluorescence indicate biological activity and compatibility of the surfactant with the microorganism. […]

[5] = tested on: Bacillus spore blend; experiment: un-dyed EVOO test for germination and growth; conditions: 0.2 wt % active surfactant, 1×10^7 CFU/g Bacillus spore blend; 5 days shaking; FIG. 11
Protocol: Replicate test compositions were prepared to evaluate the ability of the alkyl sarcosinate and alkyl betaine surfactant blend to overcome the antagonistic incompatibility between each surfactant individually and the bacterial spores. The formulation for testing comprised 20 wt % sodium lauroyl sarcosinate (30% actives), 32 wt % cetyl betaine (30% actives), 3.5 wt % of a commercially available Bacillus spore blend containing 100×10^9 CFU/g Bacillus spores, 4 wt % potassium nitrate, lactic acid (88% active) to adjust the pH to 5.5-6.0, and the remainder water. The test compositions were prepared by diluting the test formulation in water to 0.3% strength, and adding 2 wt % of 3.3 g/L Nutrient Mix (3 g/L Tryptic Soy broth and 0.3 g/L Yeast Extract). Germination and growth of bacterial spores were visually evaluated using an un-dyed EVOO test. […] Growth and biological activity of the microorganism is evident from haze that develops in the test composition, which can be visually detected. […]
The test compositions were visually evaluated for germination and growth of the bacterial spores using the un-dyed EVOO test described above, except that the test compositions were photographed after 5 days of orbital-mixer shaking at setting “5”.

[6] = tested on: Bacillus spores
[7] = 1.5% active, base formula Example 5, pH 6.5-7.0
[8] = 1.5% active, base formula Example 5, pH 9.0
[9] = 1.5% active, base formula Example 14, pH 9.0
[10] = 1.5% active, base formula Example 14, pH N/A
[11] = 1.0% active, base formula Example 14, pH 5.0
[12] = resazurin assay, FIG. 1, inhibitory if composition with less than 1.0 g/L surfactant remains blue, no fluorescence

OCCOc1ccccc1 [2-phenoxyethanol]
efficacy against pathogenic bacteria and fungi ([1]; 1.5 wt %, even at a pH of 9.0, either base formulation): not sufficient | Fungal 24 hours [2, 7]: <50% | Fungal 7 days [2, 7]: <50% | Fungal 24 hours [2, 8]: 29.3% | Fungal 7 days [2, 8]: <50% | Fungal 24 hours [2, 9]: 75.0% | Fungal 7 days [2, 9]: 95.6% | Fungal 7 days [2, 10]: <50% | Bacterial 24 hours [3, 7]: <50% | Bacterial 7 days [3, 7]: <50% | Bacterial 24 hours [3, 8]: 99.4% | Bacterial 7 days [3, 8]: >99.6% | Bacterial 24 hours [3, 9]: 98.4% | Bacterial 7 days [3, 9]: >99.6% | Bacterial 7 days [3, 10]: 87.5%

O=C(O)c1ccccc1 [Benzoic Acid]
Result [1, 11]: Pass | Fungal 24 hours [2, 11]: 99.6% | Fungal 7 days [2, 11]: 99.6% | Bacterial 24 hours [3, 11]: >99.6% | Bacterial 7 days [3, 11]: >99.6%

C=CCCCCCCCC(=O)N(C)C [STEPOSOL® MET-10U]
compatibility with the beneficial microorganisms [4]: compatible

O.O.O=C([O-])CC(O)(CC(=O)[O-])C(=O)[O-].[Na+].[Na+].[Na+] [sodium citrate dihydrate]
compatibility with the beneficial microorganisms [4]: compatible

O=C([O-])[C@H](O)[C@@H](O)[C@H](O)[C@H](O)CO.[Na+] [sodium gluconate]
compatibility with the beneficial microorganisms [4]: compatible

CCCCCCCCCCCCOS(=O)(=O)[O-].[Na+] [sodium lauryl sulfate]
germination and growth of bacterial spores [5]: strong inhibition

cocoamidopropyl betaine [CAPB]
compatibility with Bacillus spores [6, 12]: inhibitory

lauramine oxide
germination and growth of bacterial spores [5]: strong inhibition

lauryl alcohol with 8 moles of ethylene oxide [laureth 8EO]
compatibility with Bacillus spores [6]: inhibitory

sodium lauryl ether sulfate 2EO [SLES]
compatibility with Bacillus spores [6, 12]: inhibitory
